Experimental findings from PMC7946438 (The Journal of Biological Chemistry, 2021) are described below.

The structures appear in SMILES notation.

One series has as its system MDA-MB-231. In words: Cytotoxicity by MTT assay, MDA-MB-231. Format: cell-based. The following applies: for IC50: Homo sapiens, MDA-MB-231, read-out: IC50 dose; for IC10 dose: MDA-MB-231, value used as dose in wound-healing assay. (In general: Tetrazolium assays rely on reduction of a dye to a coloured formazan, in cell work by metabolically active cells.)
Series [1] relates to MDA-MB-231 cells. In words: Stability of the compound in cells by live-cell fluorescence imaging. Format: in vitro ADME. The note with it: MDA-MB-231, 10 μM.
The target in series [2] is T1, DYRK2 (Homo sapiens, UniProt Q92630).
T1 sequence (Q92630 146-540): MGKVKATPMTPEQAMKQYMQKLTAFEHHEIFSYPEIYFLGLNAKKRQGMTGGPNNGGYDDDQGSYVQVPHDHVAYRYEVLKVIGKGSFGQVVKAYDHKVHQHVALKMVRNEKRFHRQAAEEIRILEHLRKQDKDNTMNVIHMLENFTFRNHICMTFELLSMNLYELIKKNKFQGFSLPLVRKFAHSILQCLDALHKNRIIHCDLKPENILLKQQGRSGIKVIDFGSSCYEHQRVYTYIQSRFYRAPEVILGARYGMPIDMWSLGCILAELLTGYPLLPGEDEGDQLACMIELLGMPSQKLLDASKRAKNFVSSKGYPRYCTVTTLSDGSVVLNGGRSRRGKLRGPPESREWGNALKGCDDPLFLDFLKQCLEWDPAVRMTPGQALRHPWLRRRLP
In words: Coupled kinase assay, DYRK2. Format: biochemical.

Another series in a line: Solution stability. It is filed as physicochemical.
In series [3] the target is T1, DYRK2. The experiment in a line: Stop-flow tryptophan fluorescence binding kinetics, DYRK2. The following applies: tryptophan fluorescence transient.
The next series has as its target pY-Src (Homo sapiens, UniProt P12931). The experiment in a line: Coupled kinase assay, phosphorylated Src. The note with it: 5 μM of 4. Format: biochemical.
Series [4] concerns the target T2, Src (Homo sapiens, UniProt P12931). The following applies: MDA-MB-231.
Target sequence in this assay (P12931 whole entry): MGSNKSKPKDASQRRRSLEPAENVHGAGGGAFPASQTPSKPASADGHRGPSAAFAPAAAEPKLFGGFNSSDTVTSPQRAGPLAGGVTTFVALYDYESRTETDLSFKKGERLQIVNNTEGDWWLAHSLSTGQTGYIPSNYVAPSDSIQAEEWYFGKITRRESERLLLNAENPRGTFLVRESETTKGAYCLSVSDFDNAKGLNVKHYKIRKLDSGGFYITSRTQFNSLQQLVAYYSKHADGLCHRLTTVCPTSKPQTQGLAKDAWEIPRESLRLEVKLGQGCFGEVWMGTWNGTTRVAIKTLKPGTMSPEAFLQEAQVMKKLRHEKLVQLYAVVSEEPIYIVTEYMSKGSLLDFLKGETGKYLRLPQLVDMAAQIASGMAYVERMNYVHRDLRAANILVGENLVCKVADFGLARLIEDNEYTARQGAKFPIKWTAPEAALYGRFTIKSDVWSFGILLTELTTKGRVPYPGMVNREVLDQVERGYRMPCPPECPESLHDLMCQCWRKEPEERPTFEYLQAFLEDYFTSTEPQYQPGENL
The subject of series [5] is MDA-MB-231 cells. In words: Wound-healing assay. Format: cell-based. The following applies: IC10 and IC50 dose.
The test system of a further series is STAT3. In words: STAT3 nuclear translocation, immunofluorescence. Format: cell-based, murine. The note with it: RAW 264.7, 5 μM of 4.
Series [6] concerns the target T3, Abl Y253F (Homo sapiens, UniProt P00519, Y253F).
T3 sequence (P00519 229-512 Y253F limits assumed): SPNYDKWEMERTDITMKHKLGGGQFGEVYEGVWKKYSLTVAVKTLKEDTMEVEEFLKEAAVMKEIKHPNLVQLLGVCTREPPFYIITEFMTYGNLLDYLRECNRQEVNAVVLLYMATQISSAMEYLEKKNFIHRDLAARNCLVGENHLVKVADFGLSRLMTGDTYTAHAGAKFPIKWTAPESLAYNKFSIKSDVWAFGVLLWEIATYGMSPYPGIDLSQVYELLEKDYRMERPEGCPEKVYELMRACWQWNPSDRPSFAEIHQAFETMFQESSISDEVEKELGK
In words: Stop-flow tryptophan fluorescence binding kinetics, Abl Y253F.

The target of series [7] is T2, Src. Format: biochemical.
Target sequence in this assay (P12931 254-535 limits assumed): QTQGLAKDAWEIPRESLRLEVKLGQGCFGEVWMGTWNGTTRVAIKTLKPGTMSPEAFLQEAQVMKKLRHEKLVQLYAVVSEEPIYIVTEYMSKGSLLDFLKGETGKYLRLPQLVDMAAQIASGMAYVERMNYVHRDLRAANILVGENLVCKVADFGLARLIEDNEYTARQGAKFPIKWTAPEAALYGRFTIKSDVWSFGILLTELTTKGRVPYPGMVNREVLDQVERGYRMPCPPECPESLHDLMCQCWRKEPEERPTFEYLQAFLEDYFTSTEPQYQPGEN
Series [8] concerns MDA-MB-231 cells. The experiment in a line: Plasma membrane integrity, FM4-64-FX live-cell imaging. It is filed as cell-based. The note with it: 15 μM, 6 h.
The subject of series [9] is Bcl-2, Cytochrome C, caspase 3, Bid. In words: Western blot analysis of apoptosis markers. Format: cell-based. The note with it: MDA-MB-231, 10 and 20 μM, 12 h.
The subject of the next series is Src, ERK1/2, and STAT3. In words: Phosphorylation of Src, ERK1/2 and STAT3 in macrophages, immunoprecipitation. It is filed as cell-based, murine. The note with it: RAW 264.7, LPS activated.
The target of the next series is pY-Hck (Homo sapiens, UniProt P08631). In words: Coupled kinase assay, phosphorylated Hck. Format: biochemical. The following applies: 5 μM of 4.
Chain of pY-Hck (P08631 166-445): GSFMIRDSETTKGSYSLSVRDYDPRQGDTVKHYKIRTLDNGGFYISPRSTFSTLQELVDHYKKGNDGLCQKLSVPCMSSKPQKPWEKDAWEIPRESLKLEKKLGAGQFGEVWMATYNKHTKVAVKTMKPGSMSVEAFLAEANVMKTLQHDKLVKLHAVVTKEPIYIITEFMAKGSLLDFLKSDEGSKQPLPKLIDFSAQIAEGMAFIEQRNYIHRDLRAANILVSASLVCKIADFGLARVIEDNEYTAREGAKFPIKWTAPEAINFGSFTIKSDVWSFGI
Another series concerns ERK1/2. The experiment in a line: ERK1/2 nuclear translocation, immunofluorescence. Format: cell-based. The note with it: MDA-MB-231, 5 μM of 4.
Series [10] has as its target T4, Hck (Homo sapiens, UniProt P08631). The experiment in a line: biochemical. Format: binding.
Target sequence in this assay (P08631 247-526 limits assumed): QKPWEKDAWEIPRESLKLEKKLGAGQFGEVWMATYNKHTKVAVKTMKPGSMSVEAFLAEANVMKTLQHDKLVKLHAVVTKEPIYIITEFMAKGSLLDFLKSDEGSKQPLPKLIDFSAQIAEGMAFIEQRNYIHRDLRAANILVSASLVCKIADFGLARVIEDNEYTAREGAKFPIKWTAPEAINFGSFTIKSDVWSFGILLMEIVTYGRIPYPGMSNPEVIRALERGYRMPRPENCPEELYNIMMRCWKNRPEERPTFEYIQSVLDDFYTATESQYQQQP
Another series deals with pUC19 plasmid DNA. The experiment in a line: DNA cross-linking assay. The note with it: 0.1–20 μM, 37 °C, 2 h.
Series [11] concerns the target T4, Hck. The experiment in a line: biochemical. It is filed as biochemical.
Target sequence in this assay (P08631 262-515 limits assumed): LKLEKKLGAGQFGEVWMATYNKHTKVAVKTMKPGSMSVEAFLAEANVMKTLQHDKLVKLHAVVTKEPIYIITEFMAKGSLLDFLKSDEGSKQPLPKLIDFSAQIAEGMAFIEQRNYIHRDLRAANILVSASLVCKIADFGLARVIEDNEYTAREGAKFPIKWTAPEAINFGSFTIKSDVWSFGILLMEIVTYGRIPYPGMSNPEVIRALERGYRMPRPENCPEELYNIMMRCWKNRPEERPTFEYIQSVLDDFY
Series [12] can be described thus: Aggregation by dynamic light scattering. Format: physicochemical. The following applies: 15 μM in aqueous assay buffer.
The target in series [13] is T2, Src. The experiment in a line: biochemical.
Target sequence in this assay (P12931 254-535 limits assumed): as the sequence (P12931 254-535 limits assumed) above
Series [14] deals with T3, Abl Y253F. In words: Kinase activity of Abl Y253F mutant. Format: biochemical. The note with it: 10 μM.
Series [15] concerns the target T4, Hck. It is filed as biochemical.
Target sequence in this assay (P08631 247-526 limits assumed): as the sequence (P08631 247-526 limits assumed) above
For the next series, the target named is Src kinase domain (Homo sapiens, UniProt P12931).
Chain of Src kinase domain (P12931 254-535 limits assumed): as the sequence (P12931 254-535 limits assumed) above
The next series deals with HEK 293T. In words: Cytotoxicity by MTT assay, HEK 293T. It is filed as cell-based. The note with it: Homo sapiens, 48 h, read-out: IC50 value HEK 293T.
For another series, the system named is RAW 264.7 cells. The experiment in a line: Intracellular calcium detection. Format: cell-based, murine. The following applies: RAW 264.7, 5 μM of 4. (In general: Calcium flux is commonly read through the fluorescence of an indicator in the cells.)

One may read the IC50 as the concentration that gives 50% inhibition. As a reminder, the Ki is a measure of affinity in units of concentration, obtained from inhibition or displacement. Broadly, the Kd is the constant that tells how readily two partners part at equilibrium.

Chain of pY-Src (P12931 254-535): as the sequence (P12931 254-535 limits assumed) above

`COc1cc(/C=C/C(=O)CC(=O)/C=C/c2ccc(O)c(OC)c2)ccc1O` [Compound 1, Curcumin, reference compound]: in the series on MDA-MB-231, the IC50 was determined as 13000 nM and the IC10 dose is reported as 600 nM. Besides, the “Time to degradation inside the cell” value in the series on MDA-MB-231 cells [1] (fluorescence) is on record as not above 1 h. On DYRK2 [2], the affinity, expressed as Ki, was 6 nM.
Consider `COc1cc(/C=C/C(=O)C(=Cc2ccc(N(CCCl)CCCl)cc2)C(=O)/C=C/c2ccc(O)c(OC)c2)ccc1O` [Compound 4, (1E,6E)-4-(4-(bis(2-chloroethyl)amino)benzylidene)-1,7-bis(4-hydroxy-3-methoxyphenyl)hepta-1,6-diene-3,5-dione], for which the “Time stable in solution by 1H NMR” value in the series “Solution stability” (8:2 v/v of 1x PBS and DMSO-d6, 24 h observed period) is on record as “at least 24 h”. Further, in “Solution stability” (kinase assay buffer pH 8.0, 5% DMSO, 1 h), the “Stability in the kinase assay buffer” value is recorded as “most stable”. For the same compound, the IC50 with MDA-MB-231 worked out at 1300 nM; in the series on HEK 293T it was 24900 ± 1000 nM. This compound came in with an IC10 dose with MDA-MB-231 of 100 nM. Moreover, the “Interaction with DYRK2” value at DYRK2 [3] is “did not interact”. For the same compound, the “Time for which fluorescence was observed inside the cell” value in the series with MDA-MB-231 cells [1] (observed for 14 h) was 14 h. On pY-Src, the “Inhibition of phosphorylated Src (pY-Src)” value was “does not inhibit”. Further, the “Autophosphorylation of Src in the cell” value on Src [4] is “inhibits the autophosphorylation of Src”. Also, the “Effect on wound-healing rates” value with MDA-MB-231 cells [5] is “significantly impaired the wound-healing rates”. In the series on STAT3, the “Cytosolic fraction of STAT3 after LPS activation” value is reported as “increased cytosolic fraction of STAT3”. In addition, the Kd at Abl Y253F [6] came to 1300 ± 300 nM; at Hck [10], 50 ± 10 nM. The “Reduction of the rate of autophosphorylation” value on Src [7] was found to be 2.5 fold; at Hck [15], 500 fold. Moreover, the “Effect on plasma membrane integrity” value with MDA-MB-231 cells [8] is recorded as “not affecting the membrane integrity”. The “BH3 interacting domain death agonist expression level” value in series [9] is given as “does not affect”. Further, in series [9], the “Mitochondria-mediated apoptotic pathway (Bcl-2, cytochrome C, Caspase3)” value is “activates the mitochondria-mediated apoptotic pathway”. Besides, the “Phosphorylation of Src, ERK1/2, and STAT3” value in the series with Src, ERK1/2, and STAT3 was “concentration-dependent reduced phosphorylation”. For the same compound, the “Inhibition of phosphorylated Hck (pY-Hck)” value at pY-Hck was “does not inhibit”. Moreover, in the series with ERK1/2, the “Cytosolic fraction of ERK1/2 after TNF-α activation” value is reported as “significantly increased”. The DNA cross-linking entry with pUC19 plasmid DNA is listed as “do not cross-link DNA”. Besides, the Ki was found to be 70 ± 11 nM at Hck [11] and 460 ± 110 nM at Src [13]. Also, the Mode of inhibition result at Hck [11] (Km for ATP changes, Vmax unchanged) is “competitive inhibitor for the ATP-binding site”. In addition, the “Aggregation in solution (oligomeric state, DLS)” value in series [12] is “did not aggregate”. For the same compound, at Abl Y253F [14], the “Inhibition of Abl Y253F kinase activity” value was “better inhibition compared with imatinib”. Moreover, the “Covalent modification of cysteine residues of Src kinase” value at Src kinase domain is “not covalently modifying”. The “Ca^2+ release after LPS activation” value in the series on RAW 264.7 cells was “significant reduction”.
